Results taken from PubChem BioAssay (NCI).
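Interpolation was linear, between the two tested concentrations surrounding the appropriate level; five concentrations were tested over 48 hours in 96-well plates. GI50 = concentration required for 50% inhibition of growth. TGI marks complete inhibition of growth.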

What was measured:
Experiment in all cases: DTP human tumour cell line panel, 48 h
HS 578T breast = tested on: HS 578T breast
MDA-MB-231 breast = tested on: MDA-MB-231 breast
MALME-3M melanoma = tested on: MALME-3M melanoma
SK-MEL-2 melanoma = tested on: SK-MEL-2 melanoma
TK-10 renal = tested on: TK-10 renal
NCI/ADR-RES ovarian = tested on: NCI/ADR-RES ovarian
SK-MEL-5 melanoma = tested on: SK-MEL-5 melanoma
NCI-H226 lung = tested on: NCI-H226 lung
SNB-19 CNS = tested on: SNB-19 CNS
MOLT-4 leukemia = tested on: MOLT-4 leukemia
UO-31 renal = tested on: UO-31 renal
UACC-62 melanoma = tested on: UACC-62 melanoma
RXF 393 renal = tested on: RXF 393 renal
IGROV1 ovarian = tested on: IGROV1 ovarian
HOP-62 NSCLC = tested on: HOP-62 NSCLC
HCC-2998 colon = tested on: HCC-2998 colon
OVCAR-5 ovarian = tested on: OVCAR-5 ovarian
MCF7 breast = tested on: MCF7 breast
A549 NSCLC = tested on: A549 NSCLC
ACHN renal = tested on: ACHN renal
U251 CNS = tested on: U251 CNS
SW-620 colon = tested on: SW-620 colon
SF-539 CNS = tested on: SF-539 CNS
HCT-15 colon = tested on: HCT-15 colon
UACC-257 melanoma = tested on: UACC-257 melanoma
T-47D breast = tested on: T-47D breast
SNB-75 CNS = tested on: SNB-75 CNS
M14 melanoma = tested on: M14 melanoma
HT29 colon = tested on: HT29 colon
DU-145 prostate = tested on: DU-145 prostate
SF-295 CNS = tested on: SF-295 CNS
SK-OV-3 ovarian = tested on: SK-OV-3 ovarian
SK-MEL-28 melanoma = tested on: SK-MEL-28 melanoma
COLO 205 colon = tested on: COLO 205 colon
NCI-H23 lung = tested on: NCI-H23 lung
HCT-116 colon = tested on: HCT-116 colon
NCI-H522 lung = tested on: NCI-H522 lung
SF-268 CNS = tested on: SF-268 CNS
NCI-H460 lung = tested on: NCI-H460 lung
786-0 renal = tested on: 786-0 renal
LOX IMVI melanoma = tested on: LOX IMVI melanoma
RPMI-8226 leukemia = tested on: RPMI-8226 leukemia
BT-549 breast = tested on: BT-549 breast
OVCAR-3 ovarian = tested on: OVCAR-3 ovarian
MDA-MB-435 = tested on: MDA-MB-435
K-562 leukemia = tested on: K-562 leukemia
CCRF-CEM leukemia = tested on: CCRF-CEM leukemia
EKVX NSCLC = tested on: EKVX NSCLC
PC-3 prostate = tested on: PC-3 prostate
OVCAR-4 ovarian = tested on: OVCAR-4 ovarian
HL-60(TB) leukemia = tested on: HL-60(TB) leukemia
A498 renal = tested on: A498 renal
OVCAR-8 ovarian = tested on: OVCAR-8 ovarian
HOP-92 NSCLC = tested on: HOP-92 NSCLC
SN12C renal = tested on: SN12C renal
CAKI-1 renal = tested on: CAKI-1 renal
SR leukemia = tested on: SR leukemia
KM12 colon = tested on: KM12 colon

CN(C)c1ccc(N=Nc2ccc(Br)cn2)c(O)c1
GI50 (HS 578T breast): 5780 nM | TGI (HS 578T breast): > 100000 nM | GI50 (MDA-MB-231 breast): 551 nM | TGI (MDA-MB-231 breast): > 100000 nM | GI50 (MALME-3M melanoma): 2650 nM | TGI (MALME-3M melanoma): > 100000 nM | GI50 (SK-MEL-2 melanoma): 5280 nM | TGI (SK-MEL-2 melanoma): > 100000 nM | GI50 (TK-10 renal): 681 nM | TGI (TK-10 renal): > 100000 nM | GI50 (NCI/ADR-RES ovarian): 362 nM | TGI (NCI/ADR-RES ovarian): 12500 nM | GI50 (SK-MEL-5 melanoma): 774 nM | TGI (SK-MEL-5 melanoma): 4350 nM | GI50 (NCI-H226 lung): 1080 nM | TGI (NCI-H226 lung): 7680 nM | GI50 (SNB-19 CNS): 641 nM | TGI (SNB-19 CNS): > 100000 nM | GI50 (MOLT-4 leukemia): 294 nM | TGI (MOLT-4 leukemia): > 46700 nM | GI50 (UO-31 renal): 160 nM | TGI (UO-31 renal): > 100000 nM | GI50 (UACC-62 melanoma): 737 nM | TGI (UACC-62 melanoma): 8350 nM | GI50 (RXF 393 renal): 620 nM | TGI (RXF 393 renal): 7060 nM | GI50 (IGROV1 ovarian): 359 nM | TGI (IGROV1 ovarian): > 100000 nM | GI50 (HOP-62 NSCLC): 389 nM | TGI (HOP-62 NSCLC): > 73600 nM | GI50 (HCC-2998 colon): 476 nM | TGI (HCC-2998 colon): > 100000 nM | GI50 (OVCAR-5 ovarian): 1420 nM | TGI (OVCAR-5 ovarian): > 100000 nM | GI50 (MCF7 breast): 385 nM | TGI (MCF7 breast): > 100000 nM | GI50 (A549 NSCLC): 682 nM | TGI (A549 NSCLC): > 100000 nM | GI50 (ACHN renal): 361 nM | TGI (ACHN renal): > 100000 nM | GI50 (U251 CNS): 373 nM | TGI (U251 CNS): > 100000 nM | GI50 (SW-620 colon): 565 nM | TGI (SW-620 colon): > 100000 nM | GI50 (SF-539 CNS): 673 nM | TGI (SF-539 CNS): 8800 nM | GI50 (HCT-15 colon): 171 nM | TGI (HCT-15 colon): > 100000 nM | GI50 (UACC-257 melanoma): 2270 nM | TGI (UACC-257 melanoma): 7840 nM | GI50 (T-47D breast): 568 nM | TGI (T-47D breast): > 100000 nM | GI50 (SNB-75 CNS): 1550 nM | TGI (SNB-75 CNS): > 82600 nM | GI50 (M14 melanoma): 691 nM | TGI (M14 melanoma): > 21300 nM | GI50 (HT29 colon): 603 nM | TGI (HT29 colon): > 100000 nM | GI50 (DU-145 prostate): 653 nM | TGI (DU-145 prostate): > 100000 nM | GI50 (SF-295 CNS): 635 nM | TGI (SF-295 CNS): > 100000 nM | GI50 (SK-OV-3 ovarian): 774 nM | TGI (SK-OV-3 ovarian): > 100000 nM | GI50 (SK-MEL-28 melanoma): 2050 nM | TGI (SK-MEL-28 melanoma): > 100000 nM | GI50 (COLO 205 colon): 373 nM | TGI (COLO 205 colon): > 32800 nM | GI50 (NCI-H23 lung): 1130 nM | TGI (NCI-H23 lung): > 100000 nM | GI50 (HCT-116 colon): 325 nM | TGI (HCT-116 colon): > 40000 nM | GI50 (NCI-H522 lung): 983 nM | TGI (NCI-H522 lung): > 28600 nM | GI50 (SF-268 CNS): 404 nM | TGI (SF-268 CNS): > 100000 nM | GI50 (NCI-H460 lung): 281 nM | TGI (NCI-H460 lung): > 34700 nM | GI50 (786-0 renal): 266 nM | TGI (786-0 renal): > 100000 nM | GI50 (LOX IMVI melanoma): 294 nM | GI50 (RPMI-8226 leukemia): 528 nM | TGI (RPMI-8226 leukemia): > 100000 nM | GI50 (BT-549 breast): 737 nM | TGI (BT-549 breast): > 100000 nM | GI50 (OVCAR-3 ovarian): 320 nM | TGI (OVCAR-3 ovarian): > 31000 nM | GI50 (MDA-MB-435): 1930 nM | TGI (MDA-MB-435): > 100000 nM | GI50 (K-562 leukemia): 471 nM | TGI (K-562 leukemia): > 100000 nM | GI50 (CCRF-CEM leukemia): 227 nM | GI50 (EKVX NSCLC): 382 nM | TGI (EKVX NSCLC): > 100000 nM | GI50 (PC-3 prostate): 556 nM | TGI (PC-3 prostate): > 100000 nM | GI50 (OVCAR-4 ovarian): 186 nM | TGI (OVCAR-4 ovarian): 4890 nM | GI50 (HL-60(TB) leukemia): 260 nM | TGI (HL-60(TB) leukemia): 2440 nM | GI50 (A498 renal): 3210 nM | TGI (A498 renal): 66700 nM | GI50 (OVCAR-8 ovarian): 549 nM | TGI (OVCAR-8 ovarian): > 100000 nM | GI50 (HOP-92 NSCLC): 1310 nM | TGI (HOP-92 NSCLC): > 100000 nM | GI50 (SN12C renal): 704 nM | TGI (SN12C renal): > 100000 nM | GI50 (CAKI-1 renal): 790 nM | TGI (CAKI-1 renal): > 100000 nM | GI50 (SR leukemia): 149 nM | TGI (SR leukemia): > 34000 nM | GI50 (KM12 colon): 854 nM | TGI (KM12 colon): > 100000 nM
